Reference: patent US11767310B2, “Nicotinamide RIPK1 inhibitors” (AbbVie Inc., priority 2021, dated 2023)
Read-outs that look alike come from different tables or passages of the source.

Key:
Experiment in all cases: Kinase binding screen
Settings in all cases: read-out: Percent Control at 100 nM Compound Concentration
AKT2 = AKT2 (Homo sapiens (Human), UniProt P31751)
ASK1 = ASK1 (Homo sapiens (Human), UniProt Q99683)
BRAF = BRAF (Homo sapiens (Human), UniProt P15056)
BRSK1 = BRSK1 (Homo sapiens (Human), UniProt Q8TDC3)
CAMK2G = CAMK2G (Homo sapiens (Human), UniProt Q13555)
CDK5 = CDK5 (Homo sapiens (Human), UniProt Q00535)
CDKL5 = CDKL5 (Homo sapiens (Human), UniProt O76039)
CSNK1E = CSNK1E (Homo sapiens (Human), UniProt P49674)
DAPK2 = DAPK2 (Homo sapiens (Human), UniProt Q9UIK4)
DDR2 = DDR2 (Homo sapiens (Human), UniProt Q16832)
EGFR(L747-T751del,Sins) = EGFR(L747-T751del,Sins) (Homo sapiens (Human), UniProt P00533, DEL747-751/INS746S)
FLT3(K663Q) = FLT3(K663Q) (Homo sapiens (Human), UniProt P36888, K663Q)
HIPK4 = HIPK4 (Homo sapiens (Human), UniProt Q8NE63)
IGFIR = IGFIR (Homo sapiens (Human), UniProt P08069)
KIT = KIT (Homo sapiens (Human), UniProt P10721)
MAP3K3 = MAP3K3 (Homo sapiens (Human), UniProt Q99759)
MAP4K4 = MAP4K4 (Homo sapiens (Human), UniProt O95819)
MELK = MELK (Homo sapiens (Human), UniProt Q14680)
MKNK2 = MKNK2 (Homo sapiens (Human), UniProt Q9HBH9)
MST2 = MST2 (Homo sapiens (Human), UniProt Q13188)
MUSK = MUSK (Homo sapiens (Human), UniProt O15146)
NEK3 = NEK3 (Homo sapiens (Human), UniProt P51956)
PIK3CA(I800L) = PIK3CA(I800L) (Homo sapiens (Human), UniProt P42336, I800L)
PIM1 = PIM1 (Homo sapiens (Human), UniProt P11309)
PLK3 = PLK3 (Homo sapiens (Human), UniProt Q9H4B4)
SLK = SLK (Homo sapiens (Human), UniProt Q9H2G2)
STK35 = STK35 (Homo sapiens (Human), UniProt Q8TDR2)
TRKA = TRKA (Homo sapiens (Human), UniProt P04629)
TRKB = TRKB (Homo sapiens (Human), UniProt Q16620)

KIT, sequence (P10721 26-976): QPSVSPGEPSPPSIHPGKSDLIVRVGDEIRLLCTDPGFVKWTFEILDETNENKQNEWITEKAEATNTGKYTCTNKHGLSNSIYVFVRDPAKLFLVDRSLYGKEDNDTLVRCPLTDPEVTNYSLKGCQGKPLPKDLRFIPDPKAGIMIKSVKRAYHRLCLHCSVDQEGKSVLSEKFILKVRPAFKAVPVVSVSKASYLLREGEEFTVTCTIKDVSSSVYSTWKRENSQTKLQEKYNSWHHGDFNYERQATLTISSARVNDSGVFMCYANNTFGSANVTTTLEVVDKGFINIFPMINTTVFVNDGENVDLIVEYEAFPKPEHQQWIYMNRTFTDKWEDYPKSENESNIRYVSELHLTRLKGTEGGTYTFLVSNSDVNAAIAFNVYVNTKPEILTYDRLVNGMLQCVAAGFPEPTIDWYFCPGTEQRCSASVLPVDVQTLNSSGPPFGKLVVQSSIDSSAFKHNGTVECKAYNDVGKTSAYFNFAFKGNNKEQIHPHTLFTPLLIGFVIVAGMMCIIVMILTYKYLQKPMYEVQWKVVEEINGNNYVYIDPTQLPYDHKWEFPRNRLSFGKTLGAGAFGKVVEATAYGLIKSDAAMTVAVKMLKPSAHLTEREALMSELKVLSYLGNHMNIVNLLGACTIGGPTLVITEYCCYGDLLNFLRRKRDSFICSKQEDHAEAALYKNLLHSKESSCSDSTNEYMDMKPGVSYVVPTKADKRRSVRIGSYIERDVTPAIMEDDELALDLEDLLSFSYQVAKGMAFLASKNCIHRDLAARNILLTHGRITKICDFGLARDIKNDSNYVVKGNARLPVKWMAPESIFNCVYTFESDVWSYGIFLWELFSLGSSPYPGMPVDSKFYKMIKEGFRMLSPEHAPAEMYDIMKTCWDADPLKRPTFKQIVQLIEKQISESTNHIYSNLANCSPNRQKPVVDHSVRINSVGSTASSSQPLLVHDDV
STK35, sequence (Q8TDR2 whole entry): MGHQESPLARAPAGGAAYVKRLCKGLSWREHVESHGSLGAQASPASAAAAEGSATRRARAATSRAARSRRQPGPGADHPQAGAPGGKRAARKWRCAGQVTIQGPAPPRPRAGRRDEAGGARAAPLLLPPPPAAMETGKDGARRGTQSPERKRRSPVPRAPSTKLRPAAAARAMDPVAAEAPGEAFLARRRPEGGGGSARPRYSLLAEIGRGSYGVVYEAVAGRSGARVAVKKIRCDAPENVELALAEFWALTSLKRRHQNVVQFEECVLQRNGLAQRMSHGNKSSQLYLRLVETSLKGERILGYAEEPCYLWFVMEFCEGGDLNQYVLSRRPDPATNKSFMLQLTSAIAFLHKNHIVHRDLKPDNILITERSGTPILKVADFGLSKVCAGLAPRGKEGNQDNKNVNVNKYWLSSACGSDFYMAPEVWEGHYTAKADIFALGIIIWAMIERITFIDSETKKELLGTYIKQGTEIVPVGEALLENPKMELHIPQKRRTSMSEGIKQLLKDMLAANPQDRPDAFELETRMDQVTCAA
MKNK2, sequence (Q9HBH9 whole entry): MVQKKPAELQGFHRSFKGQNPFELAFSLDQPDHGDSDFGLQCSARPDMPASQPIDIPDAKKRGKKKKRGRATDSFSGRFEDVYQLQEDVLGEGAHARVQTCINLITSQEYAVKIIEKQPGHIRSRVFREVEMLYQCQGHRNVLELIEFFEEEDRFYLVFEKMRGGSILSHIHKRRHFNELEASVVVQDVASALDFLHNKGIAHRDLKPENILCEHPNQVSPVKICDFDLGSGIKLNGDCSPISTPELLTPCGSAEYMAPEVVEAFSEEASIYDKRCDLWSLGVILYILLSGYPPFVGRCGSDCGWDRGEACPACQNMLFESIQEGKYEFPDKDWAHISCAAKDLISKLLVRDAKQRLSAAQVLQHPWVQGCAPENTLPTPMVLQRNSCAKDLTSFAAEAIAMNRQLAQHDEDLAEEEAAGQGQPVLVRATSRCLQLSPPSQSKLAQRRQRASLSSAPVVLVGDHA
CDK5, sequence (Q00535 whole entry): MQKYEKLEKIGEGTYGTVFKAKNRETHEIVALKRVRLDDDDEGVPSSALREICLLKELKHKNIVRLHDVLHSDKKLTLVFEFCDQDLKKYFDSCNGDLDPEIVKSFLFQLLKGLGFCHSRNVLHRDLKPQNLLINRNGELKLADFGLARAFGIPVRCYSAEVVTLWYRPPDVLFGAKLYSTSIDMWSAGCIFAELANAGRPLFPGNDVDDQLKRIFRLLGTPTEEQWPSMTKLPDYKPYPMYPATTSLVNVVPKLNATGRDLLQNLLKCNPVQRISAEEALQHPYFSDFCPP
EGFR(L747-T751del,Sins), sequence (P00533 other isoform, or with tags, fused parts or gaps del 1-668/ins S behind 746/del 747-751/del 1012-1210 limits assumed): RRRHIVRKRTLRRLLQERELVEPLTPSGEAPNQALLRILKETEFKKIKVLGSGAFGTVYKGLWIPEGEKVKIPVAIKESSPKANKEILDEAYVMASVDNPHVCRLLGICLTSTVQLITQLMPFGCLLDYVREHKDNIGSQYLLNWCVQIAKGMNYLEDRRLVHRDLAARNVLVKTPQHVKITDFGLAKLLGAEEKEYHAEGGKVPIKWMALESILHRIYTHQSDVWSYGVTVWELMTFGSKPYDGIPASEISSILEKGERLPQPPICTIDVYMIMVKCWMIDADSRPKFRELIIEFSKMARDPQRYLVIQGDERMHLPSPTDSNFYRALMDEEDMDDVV
DAPK2, sequence (Q9UIK4 whole entry): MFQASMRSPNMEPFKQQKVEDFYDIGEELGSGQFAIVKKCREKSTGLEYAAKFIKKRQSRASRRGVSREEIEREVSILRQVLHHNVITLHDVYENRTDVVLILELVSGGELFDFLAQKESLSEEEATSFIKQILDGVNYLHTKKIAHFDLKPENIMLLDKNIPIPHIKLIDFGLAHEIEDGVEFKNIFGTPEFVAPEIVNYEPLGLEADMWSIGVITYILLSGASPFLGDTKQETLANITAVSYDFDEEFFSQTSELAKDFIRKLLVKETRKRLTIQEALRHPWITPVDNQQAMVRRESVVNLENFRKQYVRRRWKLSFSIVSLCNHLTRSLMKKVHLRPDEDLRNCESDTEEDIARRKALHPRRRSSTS
MUSK, sequence (O15146 24-869): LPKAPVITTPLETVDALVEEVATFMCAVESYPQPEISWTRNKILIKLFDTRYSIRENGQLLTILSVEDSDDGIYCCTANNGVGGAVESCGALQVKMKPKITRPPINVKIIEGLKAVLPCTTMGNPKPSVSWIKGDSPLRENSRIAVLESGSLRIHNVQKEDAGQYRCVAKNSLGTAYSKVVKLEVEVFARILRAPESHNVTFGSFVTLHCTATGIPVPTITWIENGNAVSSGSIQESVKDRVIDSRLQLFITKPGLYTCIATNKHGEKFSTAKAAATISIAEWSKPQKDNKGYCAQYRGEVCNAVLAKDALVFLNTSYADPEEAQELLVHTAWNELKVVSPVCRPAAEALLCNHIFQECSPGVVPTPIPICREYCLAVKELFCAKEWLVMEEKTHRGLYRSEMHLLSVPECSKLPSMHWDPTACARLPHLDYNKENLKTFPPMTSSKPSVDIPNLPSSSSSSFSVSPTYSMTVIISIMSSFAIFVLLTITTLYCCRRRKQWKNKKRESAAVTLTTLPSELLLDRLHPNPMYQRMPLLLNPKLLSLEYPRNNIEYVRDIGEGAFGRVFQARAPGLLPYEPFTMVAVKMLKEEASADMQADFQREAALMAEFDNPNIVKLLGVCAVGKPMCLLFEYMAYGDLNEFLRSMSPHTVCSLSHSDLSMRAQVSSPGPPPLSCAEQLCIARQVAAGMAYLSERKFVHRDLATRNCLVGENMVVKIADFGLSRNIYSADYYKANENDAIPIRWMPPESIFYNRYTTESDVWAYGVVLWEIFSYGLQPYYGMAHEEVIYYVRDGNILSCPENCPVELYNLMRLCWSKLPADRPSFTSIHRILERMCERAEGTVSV
CAMK2G, sequence (Q13555 whole entry): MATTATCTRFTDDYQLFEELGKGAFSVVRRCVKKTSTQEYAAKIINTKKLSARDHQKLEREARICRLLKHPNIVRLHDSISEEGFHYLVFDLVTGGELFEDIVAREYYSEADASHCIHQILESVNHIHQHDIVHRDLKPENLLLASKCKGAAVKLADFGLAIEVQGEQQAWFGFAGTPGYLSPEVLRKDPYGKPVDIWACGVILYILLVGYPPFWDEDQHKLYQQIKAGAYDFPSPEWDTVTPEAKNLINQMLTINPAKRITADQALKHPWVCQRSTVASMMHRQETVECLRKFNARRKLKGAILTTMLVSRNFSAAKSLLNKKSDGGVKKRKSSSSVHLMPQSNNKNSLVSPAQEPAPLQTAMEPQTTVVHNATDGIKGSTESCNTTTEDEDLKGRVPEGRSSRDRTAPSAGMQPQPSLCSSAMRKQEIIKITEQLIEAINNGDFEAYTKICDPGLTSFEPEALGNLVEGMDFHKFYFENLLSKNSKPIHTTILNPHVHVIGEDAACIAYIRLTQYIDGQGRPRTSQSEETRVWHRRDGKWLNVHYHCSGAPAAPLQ
MAP3K3, sequence (Q99759 whole entry): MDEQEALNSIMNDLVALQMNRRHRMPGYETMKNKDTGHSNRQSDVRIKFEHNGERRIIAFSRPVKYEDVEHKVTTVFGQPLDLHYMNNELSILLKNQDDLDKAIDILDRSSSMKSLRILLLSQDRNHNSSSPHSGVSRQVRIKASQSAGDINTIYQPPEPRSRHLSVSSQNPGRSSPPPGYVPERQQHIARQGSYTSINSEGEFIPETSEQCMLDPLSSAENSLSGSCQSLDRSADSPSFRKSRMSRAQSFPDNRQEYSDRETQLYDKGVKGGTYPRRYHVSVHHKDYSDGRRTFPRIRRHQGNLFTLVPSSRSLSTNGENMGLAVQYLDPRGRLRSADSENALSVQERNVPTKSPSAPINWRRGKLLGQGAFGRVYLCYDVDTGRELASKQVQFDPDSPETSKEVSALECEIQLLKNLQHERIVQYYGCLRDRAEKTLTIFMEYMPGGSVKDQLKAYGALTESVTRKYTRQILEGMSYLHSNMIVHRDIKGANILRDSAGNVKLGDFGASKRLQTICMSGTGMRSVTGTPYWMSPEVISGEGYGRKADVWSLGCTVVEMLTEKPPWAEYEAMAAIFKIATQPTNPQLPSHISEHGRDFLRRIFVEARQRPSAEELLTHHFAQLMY

Molecule `CN(C[C@H](Cc1ccccc1)OP(=O)(O)O)C(=O)c1cncc(C#Cc2cnn(C(F)F)c2)c1` [Example 19, (S)-1-(5-((1-(difluoromethyl)-1H-pyrazol-4-yl)ethynyl)-N-methylnicotinamido)-3-phenylpropan-2-yl dihydrogen phosphate] has a remaining activity at 0.1 µM (AKT2) of 90%, a remaining activity at 0.1 µM (ASK1) of 100% and a remaining activity at 0.1 µM (BRAF) of 100%. It also gave a remaining activity at 0.1 µM (BRSK1) of 99%, a remaining activity at 0.1 µM (CAMK2G) of 100% and a remaining activity at 0.1 µM (CDK5) of 100%. It also gave a remaining activity at 0.1 µM (CDKL5) of 86%, a remaining activity at 0.1 µM (CSNK1E) of 74% and a remaining activity at 0.1 µM (DAPK2) of 90%. The remaining activity at 0.1 µM (DDR2) was 100%, the remaining activity at 0.1 µM (EGFR(L747-T751del,Sins)) was 79% and the remaining activity at 0.1 µM (FLT3(K663Q)) was 100%. The remaining activity at 0.1 µM (HIPK4) was 100%, the remaining activity at 0.1 µM (IGFIR) was 98% and the remaining activity at 0.1 µM (KIT) was 99%. It also gave a remaining activity at 0.1 µM (MAP3K3) of 92%, a remaining activity at 0.1 µM (MAP4K4) of 95% and a remaining activity at 0.1 µM (MELK) of 83%. It also gave a remaining activity at 0.1 µM (MKNK2) of 79%, a remaining activity at 0.1 µM (MST2) of 99% and a remaining activity at 0.1 µM (MUSK) of 100%. For the same molecule, the remaining activity at 0.1 µM (NEK3) was 96%, the remaining activity at 0.1 µM (PIK3CA(I800L)) was 87% and the remaining activity at 0.1 µM (PIM1) was 100%. It also gave a remaining activity at 0.1 µM (PLK3) of 92%, a remaining activity at 0.1 µM (SLK) of 97% and a remaining activity at 0.1 µM (STK35) of 100%. The remaining activity at 0.1 µM (TRKA) was 81% and the remaining activity at 0.1 µM (TRKB) was 94%.

With `CN(C[C@@H](O)Cc1ccccc1)C(=O)c1cncc(C#Cc2cnn(C(F)F)c2)c1` [Example 2, (S)-5-((1-(difluoromethyl)-1H-pyrazol-4-yl)ethynyl)-N-(2-hydroxy-3-phenylpropyl)-N-methylnicotinamide] the remaining activity at 0.1 µM (AKT2; AKT2) was 99%, the remaining activity at 0.1 µM (ASK1; ASK1) was 88% and the remaining activity at 0.1 µM (BRAF; BRAF) was 100%. It also gave a remaining activity at 0.1 µM (BRSK1; BRSK1) of 99%, a remaining activity at 0.1 µM (CAMK2G; CAMK2G) of 94% and a remaining activity at 0.1 µM (CDK5; CDK5) of 100%. It also gave a remaining activity at 0.1 µM (CDKL5; CDKL5) of 93%, a remaining activity at 0.1 µM (CSNK1E; CSNK1E) of 67% and a remaining activity at 0.1 µM (DAPK2; DAPK2) of 100%. For the same molecule, the remaining activity at 0.1 µM (DDR2; DDR2) was 100%, the remaining activity at 0.1 µM (EGFR(L747-T751del,Sins); EGFR(L747-T751del,Sins)) was 100% and the remaining activity at 0.1 µM (FLT3(K663Q); FLT3(K663Q)) was 100%. For the same molecule, the remaining activity at 0.1 µM (HIPK4; HIPK4) was 100%, the remaining activity at 0.1 µM (IGFIR; IGFIR) was 100% and the remaining activity at 0.1 µM (KIT; KIT) was 100%. It also gave a remaining activity at 0.1 µM (MAP3K3; MAP3K3) of 96%, a remaining activity at 0.1 µM (MAP4K4; MAP4K4) of 92% and a remaining activity at 0.1 µM (MELK; MELK) of 77%. For the same molecule, the remaining activity at 0.1 µM (MKNK2; MKNK2) was 82%, the remaining activity at 0.1 µM (MST2; MST2) was 100% and the remaining activity at 0.1 µM (MUSK; MUSK) was 100%. It also gave a remaining activity at 0.1 µM (NEK3; NEK3) of 96%, a remaining activity at 0.1 µM (PIK3CA(I800L); PIK3CA(I800L)) of 96% and a remaining activity at 0.1 µM (PIM1; PIM1) of 98%. The remaining activity at 0.1 µM (PLK3; PLK3) was 97%, the remaining activity at 0.1 µM (SLK; SLK) was 99% and the remaining activity at 0.1 µM (STK35; STK35) was 99%. The remaining activity at 0.1 µM (TRKA; TRKA) was 100% and the remaining activity at 0.1 µM (TRKB; TRKB) was 100%.
